Measured values taken from publication PMC9167309, “Multiple-reaction monitoring (MRM) LC–MS/MS quantitation of venlafaxine and its O-desmethyl metabolite for a preclinical pharmacokinetic study in rabbits” (Scientific Reports, 2022).

What was measured:
[1] = Preclinical PK study: plasma VEN and ODV after a single oral dose of ER formulations, LC-MRM-MS/MS, noncompartmental analysis; format: in vivo, New Zealand White rabbits; settings: throughout the sampling period (36 h); after oral optimized ER tablet and RLD; above LOQ
Protocol: Four pairs (male/female) of healthy rabbits, each weighing 3–4 kg, were provided by Government Rabbit Farm, Wussan (Pattan), Kashmir. The rabbits were divided into a reference group and a test group. […] The resulting plasma samples were frozen at − 40 °C until further analysis.
The PK evaluation summarized in Table 11 was carried out by way of noncompartmental analysis (NCA) using WinNonlin 8.1 and the additional statistical computations were performed in SAS 9.4. […] The statistical assurance of bioequivalent similarity given in Table 12 was computed using analysis of variance on log-transformed PK parameters (Cmax, AUClast, and AUCINF_obs) of reference and test product.

noradrenaline reuptake = system: noradrenaline reuptake; parameters: method as in doi:10.2165/00023210-200014060-00006; settings: cited from earlier work
dopamine reuptake = system: dopamine reuptake; parameters: method as in doi:10.2165/00023210-200014060-00006; settings: cited from earlier work
serotonin reuptake = settings: cited from earlier work

Row | SMILES | plasma concentrations [1] | inhibition of noradrenaline reuptake (noradrenaline reuptake) | inhibition of dopamine reuptake (dopamine reuptake) | inhibition of serotonin reuptake (serotonin reuptake)
1 | COc1ccc(C(CN(C)C)C2(O)CCCCC2)cc1 (racemic) [VEN, (RS) 1-[2-(dimethylamino)-1-(4-methoxyphenyl)ethyl]cyclohexanol] | > 0.5 ng/mL | potent inhibitors | weakly inhibit | 
2 | CN(C)CC(c1ccc(O)cc1)C1(O)CCCCC1 (stereo not shown) [ODV, O-desmethylvenlafaxine] | > 0.5 ng/mL | potent inhibitors | weakly inhibit | potent inhibitors
